US6566081B1, “Methods of identifying a compound which modulates the non-transcriptional non-map-kinase induced effects of steroid hormones” (The Brigham and Women's Hospital, Inc., priority 1999, dated 2003)
Entries after “also recorded” stand apart in the source; their conditions may differ.

What was measured:
eNOS [1] = molecular target: T1, eNOS (Mus musculus, UniProt P70313); assay: Cremaster eNOS activity in mice; format: in vivo; conditions: mice with 1.5 mg slow-release E2 tablets s.c.
T1 construct: from tissue; host or cells: cremaster muscle of male C57BL/6 mice
Experimental: (§1) Mice were anesthetized and the cremaster muscle was studied under intravital microscopy^28. Ischemia was induced by applying pressure to supplying arteries just sufficient to stop blood flow for 30 min. In some experiments, wortmannin (100 nM) or L-NAME (0.1 mM) was applied to the cremaster muscle during the ischemic period. The pressure was released for reperfusion, and the same vessels were recorded in each animal before and after I/R. The rolling velocities of 25 leukocytes were measured in each venule; sorted and averaged for each rank to construct cumulative histograms. The velocities of 3,750 leukocytes were measured in 150 venules before and after I/R. The number of firmly adherent leukocytes was measured before and after I/R in the same 200 μm long segments of venules. The following number of venules were studies for leukocyte adhesion: Untreated, 15 venules; E2-treated, 20 venules; E2-treated with wortmannin, 25 venules; E2-treated with L-NAME, 15 venules. Cremaster eNOS activity was measured in 3 untreated, 4 E2-treated, 5 E2-treated with wortmannin, and 4 E2-treated with L-NAME mice.

eNOS [2] = assay: E2-stimulated eNOS activity in transfected murine fibroblasts; conditions: murine fibroblasts transfected with ERα and eNOS cDNAs
Akt/PKB [3] = assay: Akt kinase assay (immunoprecipitated Akt, GSK-3 peptide); format: cell-based, human; conditions: for stimulation of Akt kinase activity (words): E2/αE2 10 nM, insulin 100 nM
Experimental: Immunoprecipitated Akt kinase activity was assayed on endothelial cell lysates by using the Aktl/PKBα immunoprecipitation kinase assay kit (Upstate Biotechnology, Lake Placid, N.Y.). Endothelial cells were starved in phenol red-free199 medium with 0.4% estrogen-deprived FBS, treated, washed, and then harvested in ice-cold Buffer A (50 mM Tris-HCl, pH 7.5, 1 mM EDTA, 1 mM EGTA, […] Na3VO4, 0.1% (v/v) 2-mercaptoethanol, 1% Triton X-100, 50 mM sodium fluoride, 5 mM sodium pyrophosphate, 10 mM sodium glycerophosphate, 0.1 mM PMSF, 1 μg/mL of aprotinin, pepstatin, leupeptin and 1 μM microcystin). The cleared cell lysates were incubated for 1 hour at 4° C. with 4 μg/tube of anit-Akt1/PKBα PH domain immunoaffinity purified sheep IgG, after which 50 μL of a 1:1 (v/v) protein G-agarose slurry was added for an additional hour of incubation at 4° C. After centrifugation, the immunoprecipitates were washed three times with Buffer A containing 0.5 M NaCl, then two times with Buffer B (50 mM Tris-HCl, pH 7.5, 0.03% (w/v) Brij-35, 0.1 mM EGTA, 0.1% (v/v) 2-mercaptoethanol), and finally twice with 1×Assay Buffer (20 mM MOPS, pH 7.2, 25 mM β-glycerol phosphate, 5 mM EGTA, 1 mM Na3VO4, 1 mM DTT).
The immunoprecipitates were resuspended in 10 μL of ice-cold 1×Assay Buffer, and were sequentially added: 10 μL of 40 μM PKA inhibitor peptide ([…]-NH2—corresponding to residues 7-23 of human PKA inhibitor), 10 μL of Akt/PKB specific substrate peptide (100 μM) (RPRAATF—corresponding to the phosphorylation site of glycogen synthase kinase-3, specifically targeted by Akt/PKB, but not by other protein kinases such as Rsk-2 and p70 S6 kinase), and 10 μL of [γ-^32P]ATP stock solution (1×Assay Buffer with 500 μM ATP, 75 mM MgCl2, containing 1 μCi/μL [γ^32-P]ATP, 3000 Ci/mmol). The reaction was incubated at 37° C. for 30 minutes, after which 40 μL of the supernatant was mixed with 20 μL of 40% TCA and incubated for 5 minutes at room temperature. 40 μL of each final fraction were spotted onto the center of a 2 cm×2 cm P81 phosphocellulose paper. The assay squares were washed three times with 0.75% phosphoric acid for five minutes at room temperature, then once with acetone. The squares were then transferred to vials containing a liquid scintillation cocktail and read in a scintillation counter. Blank reaction for the detection of the unspecific background were performed by substituting the cell lysate with Buffer A at the beginning of the procedure, and aspecific endogenous phosphorylation of proteins in the sample extract was estimated by substituting in some samples 1×Assay Buffer for the Akt/PKB specific substrate peptide.

[4] = test system: mouse cremaster muscle venules; assay: Model of vascular injury: ischemia and reperfusion in the mouse cremaster muscle (leukocyte rolling and adhesion); format: in vivo; conditions: mice with 1.5 mg slow-release E2 tablets s.c.
Experimental: as §1, with “venules.” for “venules. The following number of venules were studies for leukocyte adhesion: Untreated, 15 venules; E2-treated, 20 venules; E2-treated with wortmannin, 25 venules; E2-treated with L-NAME, 15 venules. Cremaster eNOS activity was measured in 3 untreated, 4 E2-treated, 5 E2-treated with wortmannin, and 4 E2-treated with L-NAME mice.”

PtdIns-3,4,5-P3 = assay: Endogenous PtdIns-3,4,5-P3 levels in non-transfected human endothelial cells; format: cell-based; conditions: E2 10 nM, insulin 100 nM
[5] = Serum E2 level in mice implanted with E2 tablets; format: in vivo, mouse; conditions: mice implanted s.c. with 1.5 mg slow-release E2 tablets, 3-5 days
PI3K = assay: p-Tyr- and IRS-1-associated PI3K activity (immunoprecipitate); format: cell-based, human; conditions: p-Tyr and IRS-1 immunoprecipitate
Akt/PKB [6] = assay: Immunoblotting of Akt phosphorylation (Thr 308, Ser 473); format: cell-based, human
Experimental: After the different treatments, serum-starved endothelial cells were rinsed once with ice-cold PBS before addition of the lysis buffer (100 mM Tris-HCl, pH 6.8, 4% SDS, 20% glycerol, 1 mM sodium orthovanadate, 1 mM NaF, and 1 mM phenylmethylsulfonylfluoride) to the dishes on an ice tray. The cell lysates were scraped, boiled, and centrifuged for 2 min at 13000 rpm. Total cell lysates (40 μg of protein) and low range molecular weight markers (BIO-RAD, Hercules, Calif.) were separated by SDS-polyacrylamide gel electrophoresis (12% running, 4% stacking), electrophoretically transferred to polyvinylidene fluoride membranes (Immobilon P, 0.45 μm pore size) and incubated overnight at 4° C. with blocking solution (5% skim milk in TBS—0.1% Tween 20). Affinity-purified rabbit antibodies (0.4 μg of IgG/ml) vs. Akt, (Ser 473) phospho-Akt or (Thr 308) phospho-Akt (New England BioLabs, Beverly, Mass.), Erk1/2, (Tyr 204) phospho-Erk-1/-2 (Calbiochem, San Diego, Calif.) were incubated with the membranes overnight at 4° C. in TBS—0.1% Tween 20 containing 5% BSA. The blots were washed three times with TBS—0.1% Tween 20 and then treated with donkey anti-rabbit antibody (1:4000 dilution) coupled to horseradish peroxidase. Immunodetection was accomplished using the enhanced chemoluminescence kit (ECL Kit, Amersham Corp.).

[7] = E2/αE2 10 nM, insulin 100 nM, 20 min

T1 sequence (P70313 2-1202): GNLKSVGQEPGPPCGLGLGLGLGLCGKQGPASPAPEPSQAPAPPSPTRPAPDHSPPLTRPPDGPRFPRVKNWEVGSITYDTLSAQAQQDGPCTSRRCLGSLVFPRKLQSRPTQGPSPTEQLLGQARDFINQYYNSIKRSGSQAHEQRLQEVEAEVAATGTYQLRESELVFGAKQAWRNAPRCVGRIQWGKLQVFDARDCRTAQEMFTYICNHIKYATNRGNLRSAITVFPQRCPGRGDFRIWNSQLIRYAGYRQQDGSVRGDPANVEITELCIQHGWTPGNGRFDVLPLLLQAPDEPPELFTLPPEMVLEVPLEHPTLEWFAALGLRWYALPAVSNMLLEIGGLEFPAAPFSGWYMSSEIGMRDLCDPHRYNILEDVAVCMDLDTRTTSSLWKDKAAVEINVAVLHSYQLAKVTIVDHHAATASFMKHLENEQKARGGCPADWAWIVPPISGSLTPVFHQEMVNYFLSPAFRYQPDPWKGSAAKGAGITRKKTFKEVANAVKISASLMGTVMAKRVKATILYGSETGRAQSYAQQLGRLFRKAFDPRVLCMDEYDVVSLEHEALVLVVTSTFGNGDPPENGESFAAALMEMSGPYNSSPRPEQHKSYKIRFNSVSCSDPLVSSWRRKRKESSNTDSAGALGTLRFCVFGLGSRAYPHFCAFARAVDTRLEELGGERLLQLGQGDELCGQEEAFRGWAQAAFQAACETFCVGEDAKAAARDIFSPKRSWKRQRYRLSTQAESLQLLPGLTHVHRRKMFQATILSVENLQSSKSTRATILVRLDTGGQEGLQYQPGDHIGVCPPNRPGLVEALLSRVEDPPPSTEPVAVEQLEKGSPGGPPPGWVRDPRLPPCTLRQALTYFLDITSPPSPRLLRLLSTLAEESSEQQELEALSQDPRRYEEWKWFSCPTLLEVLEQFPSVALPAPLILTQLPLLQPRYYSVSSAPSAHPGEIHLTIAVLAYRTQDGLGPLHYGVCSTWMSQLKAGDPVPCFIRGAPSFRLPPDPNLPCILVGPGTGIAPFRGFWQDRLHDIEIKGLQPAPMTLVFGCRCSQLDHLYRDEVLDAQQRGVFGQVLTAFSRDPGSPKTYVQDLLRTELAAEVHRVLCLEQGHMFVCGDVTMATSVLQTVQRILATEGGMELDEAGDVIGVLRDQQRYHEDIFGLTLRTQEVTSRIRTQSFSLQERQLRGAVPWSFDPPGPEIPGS

| Molecule | increase in eNOS activity in cremaster muscle (eNOS [1]) | increase in eNOS activity, wild-type fibroblasts (eNOS [2]) | stimulation of Akt kinase activity (words) (Akt/PKB [3]; 20 min) | increase in Akt kinase activity after 10 min (Akt/PKB [3]; E2 stimulation, 10 min) | increase in Akt kinase activity after 20 min (Akt/PKB [3]; E2 stimulation, 20 min) | changes in leukocyte accumulation and rolling velocity following I/R [4] | endogenous PtdIns-3,4,5-P3 levels (PtdIns-3,4,5-P3) | serum E2 level [5] | p-Tyr- or IRS-1-associated PI3K activity (PI3K) | Akt Ser 473 phosphorylation (Akt/PKB [6]; [7]) | Akt threonine (Thr 308) phosphorylation (Akt/PKB [6]; [7]) | effect on E2-stimulated Akt kinase activity (Akt/PKB [3]; ICI 10 μM, wortmannin 30 nM) | effect on E2-induced Akt Ser 473 phosphorylation (Akt/PKB [6]; ICI 10 μM, wortmannin 30 nM) | effect on E2-induced Akt Thr 308 phosphorylation (Akt/PKB [6]; ICI 10 μM, wortmannin 30 nM) | stimulation of Akt kinase activity (words) (Akt/PKB [3]; 20 min, listed as Insulin) |
| --- | --- | --- | --- | --- | --- | --- | --- | --- | --- | --- | --- | --- | --- | --- | --- |
| 17β-estradiol [E2] | 3.2 fold | 8 fold | activated; also recorded: stimulated | 1.5 fold | 2.3 fold | prevented | increased | 760 ± 30 pg/mL | did not increase | hyperphosphorylated after 20 minutes | phosphorylated after 20 minutes; also recorded: increase in Akt phosphorylation |  |  |  |  |
| C[C@]12CC[C@@H]3c4ccc(O)cc4C[C@@H](CCCCCCCCC[S+]([O-])CCCC(F)(F)C(F)(F)F)[C@H]3[C@@H]1CC[C@@H]2O (stereo partly drawn) [ICI 187,780] |  |  |  |  |  |  |  |  |  |  |  | nearly completely abolished; also recorded: almost completely inhibited | not inhibited | blocked |  |
| insulin: known activator of the PI3-kinase/Akt pathway |  |  | substantial increase |  |  |  | rapidly increased |  | increases |  |  |  |  |  | marked activation |
